One assay addresses TDO (Homo sapiens, UniProt P48775). Put plainly: A172 kynurenine cell-based assay. Set-up: This assay utilised cancer cells which expressed either TDO or IDO; endogenous in cells; host or cells: A172 (human glioblastoma). As to conditions: A172 human glioblastoma cells, 48 hours, 500 μM L-tryptophan; read-out: A172 Kynurenine cell based assay pIC50 (converted). As for the experimental part: (§1) Exemplary compounds of the invention were prepared, and tested to determine their effect as TDO and/or IDO inhibitors. Two different assays were employed: 1. a cell-based assay for detecting the effect of test compounds on kynurenine production in two different cancer cell types. This assay utilised cancer cells which expressed either TDO or IDO and as such was used as a means of testing compound activity at these two enzymes in a cell-based context. 2. a TDO and IDO biochemical coupled assay which utilised recombinantly produced and purified TDO and IDO enzymes in combination with the enzyme formamidase. This coupled enzyme system allowed conversion of N-formylkynurenine produced by TDO or IDO activity to kynurenine which was then quantified by fluorescence following addition of Erhlich's Reagent The protocols for these are set out below.
(§2) Cell Based Assay for Detection of Kynurenine Produced by TDO and/or IDO
(§3) A172 (human glioblastoma) and SKOV3 (human ovarian adenocarcinoma) cells were seeded in a 96 well plate at 30,000 or 40,000 cells per well respectively in phenol red-free RPMI supplemented with 10% FCS, 2 mM L-glutamine and 500 μM L-tryptophan. IDO expression was induced in the SKOV3 cells by the addition of 500 ng/ml IFN-γ. Cells were incubated at 37° C. with or without the addition of test compound. After 48 hours, the cells were removed by centrifugation and Erhlich's reagent was added to the supernatant. The Erhlich's reagent was incubated for 5 minutes before the absorbance was read at 490 nm.

Another assay has as its target IDO (Homo sapiens, UniProt P14902). Kind of assay: SKOV3 kynurenine cell-based assay (IDO induced by IFN-γ). Also noted: IDO expression was induced in the SKOV3 cells by the addition of 500 ng/ml IFN-γ; endogenous in cells; host or cells: SKOV3 (human ovarian adenocarcinoma), induced with IFN-γ. As to conditions: SKOV3 human ovarian adenocarcinoma cells, 500 ng/ml IFN-γ, 48 hours, 500 μM L-tryptophan; read-out: SKOV3 Kynurenine cell based assay pIC50 (converted). As for the experimental part: as §1, §2, §3

Each structure is given as a SMILES string.

Sequence of TDO (P48775 whole entry): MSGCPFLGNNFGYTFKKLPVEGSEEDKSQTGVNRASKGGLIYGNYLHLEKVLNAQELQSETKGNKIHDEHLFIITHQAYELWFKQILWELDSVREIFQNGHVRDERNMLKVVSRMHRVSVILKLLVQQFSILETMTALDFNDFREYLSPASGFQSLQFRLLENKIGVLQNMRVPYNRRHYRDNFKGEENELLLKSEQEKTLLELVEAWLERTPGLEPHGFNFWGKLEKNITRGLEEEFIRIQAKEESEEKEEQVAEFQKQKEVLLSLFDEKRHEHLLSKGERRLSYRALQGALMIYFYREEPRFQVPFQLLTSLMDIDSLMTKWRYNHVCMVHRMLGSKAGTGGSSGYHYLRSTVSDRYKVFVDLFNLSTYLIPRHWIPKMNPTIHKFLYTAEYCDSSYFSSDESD
Sequence of IDO (P14902 whole entry): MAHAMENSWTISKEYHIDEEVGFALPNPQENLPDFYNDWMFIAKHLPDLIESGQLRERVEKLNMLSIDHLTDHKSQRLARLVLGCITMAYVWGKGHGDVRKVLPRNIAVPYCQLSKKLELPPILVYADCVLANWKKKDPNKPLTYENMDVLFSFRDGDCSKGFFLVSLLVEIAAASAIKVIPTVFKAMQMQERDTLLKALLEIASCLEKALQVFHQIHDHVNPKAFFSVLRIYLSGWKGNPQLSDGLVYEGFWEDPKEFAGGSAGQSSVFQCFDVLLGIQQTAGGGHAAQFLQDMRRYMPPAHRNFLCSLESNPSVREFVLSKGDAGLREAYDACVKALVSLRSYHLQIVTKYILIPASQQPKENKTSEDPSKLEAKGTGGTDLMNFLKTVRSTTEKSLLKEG

For the compound `CS(=O)(=O)N1CCN(c2cc(Cl)cc3[nH]ncc23)CC12CCC2` [Compound 181], the IC50 at TDO and on IDO was below 3.16 µM each time.

Regarding `CC1(C)CC(c2cc(C(F)(F)F)cc3[nH]ncc23)CCN1S(C)(=O)=O` (centres unmarked) [Compound 154], the IC50 on TDO is below 3.16 µM; at IDO it was 3.24 to 31.6 µM.

For the compound `CS(=O)(=O)N1CCC(F)(c2cc(Cl)cc3[nH]ncc23)CC1` [Compound 124], the figures for the IC50 on TDO and on IDO were below 3.16 µM and 3.24 to 31.6 µM, respectively.

Take `CNC(=O)N1CCN(c2cc(Cl)cc3[nH]ncc23)CC1` [Compound 80]: the IC50 on TDO is below 3.16 µM; at IDO, 3.24 to 31.6 µM.

As to `O=S(=O)(Cc1ccccc1)N1CCN(c2cccc3[nH]ncc23)CC1` [Compound 13], the figures for the IC50 at TDO and at IDO were 3.24 to 31.6 µM and 32.4 to 100 µM, respectively.

Take `CC1(C)CN(c2cc(C3CCCC3)cc3[nH]ncc23)CCN1S(C)(=O)=O` [Compound 148]: the IC50 on TDO was 3.24 to 31.6 µM; at IDO, 32.4 to 100 µM.

On to `CS(=O)(=O)N1CCCN(c2cc(Cl)cc3[nH]ncc23)CC1` [Compound 72], for which the IC50 at TDO was below 3.16 µM; on IDO, 3.24 to 31.6 µM.

With `CC(=O)N1[C@H](C)CN(c2cc(Cl)cc3[nH]ncc23)C[C@@H]1C` [Compound 113], the IC50 at TDO was below 3.16 µM; at IDO, 3.24 to 31.6 µM.

As for `CC(C)S(=O)(=O)N1CCN(c2cc(Cl)cc3[nH]ncc23)CC1` [Compound 61], the figures for the IC50 at TDO and on IDO were below 3.16 µM and 3.24 to 31.6 µM, respectively.

In the case of `O=C1NC(=O)C2(CCN(c3cc(C(F)(F)F)cc4[nH]ncc34)CC2)N1` [Compound 185], the IC50 at TDO and at IDO was below 3.16 µM in each case.

Turning to `OCCc1cc(Cl)cc2[nH]ncc12` [Compound 152], the IC50 on TDO was 3.24 to 31.6 µM; at IDO it was above 100 µM.

Consider `CN1CC2CN(c3cc(Cl)cc4[nH]ncc34)CCN2C1=O` (centres unmarked) [Compound 122], for which the IC50 on TDO was below 3.16 µM; on IDO, 3.24 to 31.6 µM.

On to `CN(CC1CCN(c2cc(Cl)cc3[nH]ncc23)CC1)S(C)(=O)=O` [Compound 130], for which the IC50 on TDO was below 3.16 µM; at IDO, 3.24 to 31.6 µM.

Regarding `CS(=O)(=O)N1CCN(c2cc(C3CCOCC3)cc3[nH]ncc23)CC1` [Compound 169], the IC50 is 3.24 to 31.6 µM on TDO and above 100 µM at IDO.

As for `COCCS(=O)(=O)N1CCN(c2cccc3[nH]ncc23)CC1` [Compound 23], the IC50 at TDO was above 100 µM; on IDO it was 32.4 to 100 µM.

For `Cn1ncc2c(N3CCN(S(C)(=O)=O)C(C)(C)C3)cc(Cl)cc21` [Compound 105], the values for the IC50 on TDO and at IDO were above 100 µM and 32.4 to 100 µM, respectively.

With `CN1CCN(c2cc(Cl)cc3[nH]ncc23)CC1(C)C` [Compound 164], the IC50 was below 3.16 µM at TDO and 32.4 to 100 µM at IDO.

With `C[C@H]1CN(S(C)(=O)=O)CCN1c1cc(Cl)cc2[nH]ncc12` [Compound 200], the IC50 was below 3.16 µM at TDO and 3.24 to 31.6 µM at IDO.

Regarding `CC(C)(O)C(=O)N1CCC(c2cc(Cl)cc3[nH]ncc23)CC1` [Compound 191], the results for the IC50 at TDO and at IDO were below 3.16 µM and above 100 µM, respectively.

Regarding `CC(C)c1cc(N2CCN(S(C)(=O)=O)CC2)c2cn[nH]c2c1` [Compound 67], the figures for the IC50 on TDO and on IDO were 3.24 to 31.6 µM and 32.4 to 100 µM, respectively.

In the case of `C[C@@H]1CN(c2cc(Cl)cc3[nH]ncc23)C[C@@H](C)N1S(C)(=O)=O` [Compound 102], the IC50 on TDO was below 3.16 µM; on IDO, 3.24 to 31.6 µM.

`CS(=O)(=O)N1CCC(O)(c2cc(Cl)cc3[nH]ncc23)CC1` [Compound 123]: the results for the IC50 on TDO and at IDO were below 3.16 µM and 3.24 to 31.6 µM, respectively.

Regarding `CC(=O)N1CCN(c2cc(F)cc3[nH]ncc23)CC1` [Compound 51], the IC50 on TDO was 3.24 to 31.6 µM; at IDO, above 100 µM.

Turning to `CC(C)(F)C(=O)N1CCN(c2cc(Cl)cc3[nH]ncc23)CC1` [Compound 118], the IC50 at TDO was below 3.16 µM; on IDO, 3.24 to 31.6 µM.

Regarding `CNS(=O)(=O)N1CCC(c2cc(Cl)cc3[nH]ncc23)CC1` [Compound 172], the values for the IC50 at TDO and on IDO were below 3.16 µM and 3.24 to 31.6 µM, respectively.
